The source of these data is patent US11780851B2, “LRRK2 inhibitors” (H. Lundbeck A/S, priority 2021, dated 2023).

The target in one assay is T1, LRRK2 G2019S (Homo sapiens, UniProt Q5S007, G2019S).
T1 construct: purchased Invitrogen (Life Technologies Corporation)
The experiment in a line: LRRK2 G2019S kinase activity assay (LanthaScreen TR-FRET). Type of assay: biochemical. To be noted: 250 pM LRRK2 G2019S, 1.3 mM ATP, 3 h at 30° C.; n≥2 tests. The procedure:
(§1) LRRK2 kinase activity was measured using a LanthaScreen kinase activity assay available from Invitrogen (Life Technologies Corporation). The assay is a homogeneous time resolved-fluorescence resonance energy transfer (TR-FRET) assay that measures phosphorylation of a fluorescein-labelled peptide substrate Fluorescein-ERM LRRKtide obtainable from Life Technologies Corporation as a result of LRRK2 kinase activity. The phosphorylated peptide is recognized by a terbium-labelled phospho-specific anti-LRRKtide antibody (pLRRKtide antibody), obtainable from Life Technologies Corporation and, subsequently, the phosphorylated LRRKtide can be quantified by the extent of TR-FRET between the terbium donor and fluorescein acceptor. The LRRK2 kinase was obtained from Invitrogen (Life Technologies Corporation) and comprises residue 970 to 2527 of the full length human wild-type LRRK2 kinase, or a similar sequence with the G2019S mutation. As discussed above, this mutation increases the kinase activity relative to the wild type. The kinase reactions were performed in a 20 μL volume in 384-well plates. […] The mixture was further incubated for 30 minutes at RT. […] The measurement was repeated 30 times for fluorescein and 30 times for terbium emission with a 1000 μs time window between repeats. TR-FRET measurements were performed on a Biotek Synergy plate. The TR-FRET signal was calculated as the emission-ratio at 520 nm over 495 nm. The TR-FRET ratio readout for test compounds was normalized to 0% inhibition corresponding to TR-FRET ratio measured in control wells with no inhibition of the kinase activity and 100% inhibition corresponding to TR-FRET ratio measured in control wells with inhibitor. […] C is the IC50 value and D is the Hill slope coefficient. IC50 estimates were obtained from independent experiment and the logarithmic average was calculated.

The target in a further assay is T2, LRRK2 WT (Homo sapiens, UniProt Q5S007).
T2 construct: comprises residue 970 to 2527 of the full length human wild-type LRRK2 kinase; purchased Invitrogen (Life Technologies Corporation)
Kind of assay: LRRK2 wild-type kinase activity assay (LanthaScreen TR-FRET). Type of assay: biochemical. As to conditions: 1 nM LRRK2 WT, 1.3 mM ATP, 3.5 h at 30° C.; n≥2 tests. The procedure: as §1

Molecules are shown by their SMILES.

T1 sequence (Q5S007 970-2527 G2019S): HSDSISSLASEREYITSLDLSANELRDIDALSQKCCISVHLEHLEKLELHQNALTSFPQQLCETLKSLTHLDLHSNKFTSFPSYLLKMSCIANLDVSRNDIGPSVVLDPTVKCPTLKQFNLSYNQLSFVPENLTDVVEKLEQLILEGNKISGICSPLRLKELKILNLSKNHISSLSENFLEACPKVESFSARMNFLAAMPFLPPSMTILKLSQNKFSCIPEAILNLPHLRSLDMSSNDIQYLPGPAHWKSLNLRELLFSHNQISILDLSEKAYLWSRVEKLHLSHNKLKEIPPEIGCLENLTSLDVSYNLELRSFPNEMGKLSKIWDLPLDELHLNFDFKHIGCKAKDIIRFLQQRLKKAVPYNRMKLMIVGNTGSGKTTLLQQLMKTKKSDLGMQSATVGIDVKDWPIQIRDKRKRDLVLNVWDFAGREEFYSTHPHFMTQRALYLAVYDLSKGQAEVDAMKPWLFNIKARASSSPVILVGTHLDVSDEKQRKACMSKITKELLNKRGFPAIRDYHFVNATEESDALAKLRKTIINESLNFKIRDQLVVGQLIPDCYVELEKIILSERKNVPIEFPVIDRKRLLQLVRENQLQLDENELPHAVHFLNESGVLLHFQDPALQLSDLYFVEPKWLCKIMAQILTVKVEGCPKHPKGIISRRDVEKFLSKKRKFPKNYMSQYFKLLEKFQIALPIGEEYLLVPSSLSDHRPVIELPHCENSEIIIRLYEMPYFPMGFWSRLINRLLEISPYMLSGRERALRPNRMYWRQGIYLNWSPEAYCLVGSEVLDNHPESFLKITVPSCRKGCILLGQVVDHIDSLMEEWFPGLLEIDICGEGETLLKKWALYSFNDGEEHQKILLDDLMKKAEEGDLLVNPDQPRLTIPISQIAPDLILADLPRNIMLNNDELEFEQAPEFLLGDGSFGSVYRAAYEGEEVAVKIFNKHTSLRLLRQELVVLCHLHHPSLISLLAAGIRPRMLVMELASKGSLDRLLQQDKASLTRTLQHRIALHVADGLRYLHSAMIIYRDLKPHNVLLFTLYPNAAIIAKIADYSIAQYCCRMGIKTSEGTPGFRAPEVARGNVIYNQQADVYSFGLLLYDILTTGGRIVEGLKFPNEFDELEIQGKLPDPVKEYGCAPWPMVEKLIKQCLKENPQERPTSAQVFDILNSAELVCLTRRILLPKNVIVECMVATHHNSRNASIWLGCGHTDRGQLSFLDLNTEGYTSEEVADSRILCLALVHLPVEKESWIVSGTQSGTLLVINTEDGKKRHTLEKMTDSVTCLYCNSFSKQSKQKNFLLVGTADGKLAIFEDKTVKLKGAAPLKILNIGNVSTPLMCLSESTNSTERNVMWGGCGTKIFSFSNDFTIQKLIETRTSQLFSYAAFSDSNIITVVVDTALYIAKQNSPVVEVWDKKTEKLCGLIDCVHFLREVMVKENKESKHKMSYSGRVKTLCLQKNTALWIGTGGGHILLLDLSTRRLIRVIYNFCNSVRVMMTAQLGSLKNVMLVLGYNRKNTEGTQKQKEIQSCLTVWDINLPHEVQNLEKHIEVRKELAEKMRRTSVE
T2 sequence (Q5S007 970-2527): as the sequence (Q5S007 970-2527 G2019S) above, with S1050G counted along it

Take `Cc1c2c(nn1[C@@H]1CCOC[C@@H]1C)OCCCn1nc(Cl)c3cnc(nc31)N2` (single isomer, unassigned) [Example 21, 8-Chloro-3-methyl-2-((3R,4S) or (3S,4R) or (3S,4S) or (3R,4R)-3-methyltetrahydro-2H-pyran-4-yl)-2,4,12,13-tetrahydro-11H-5,7-(azenometheno)dipyrazolo[3,4-b:5′,1′-g][1]oxa[4,6,8]triazacycloundecine]: the IC50 (as a rule, the concentration needed to halve the response being measured) at LRRK2 G2019S is 3.7 nM; on LRRK2 WT, 10 nM.
The like results for `Cc1c2c(nn1[C@@H]1CCOC[C@@H]1C)OCCCn1nc(Cl)c3cnc(nc31)N2` (single isomer, unassigned) [Example 22, 8-Chloro-3-methyl-2-((3R,4S) or (3S,4R) or (3S,4S) or (3R,4R)-3-methyltetrahydro-2H-pyran-4-yl)-2,4,12,13-tetrahydro-11H-5,7-(azenometheno)dipyrazolo[3,4-b:5′,1′-g][1]oxa[4,6,8]triazacycloundecine] were, in that order, 3.5 nM and 10 nM.
Consider `Cc1c2c(nn1[C@@H]1CCOC[C@@H]1C)OCCCn1nc(Cl)c3cnc(nc31)N2` (single isomer, unassigned) [Example 23, 8-Chloro-3-methyl-2-((3R,4S) or (3S,4R) or (3S,4S) or (3R,4R)-3-methyltetrahydro-2H-pyran-4-yl)-2,4,12,13-tetrahydro-11H-5,7-(azenometheno)dipyrazolo[3,4-b:5′,1′-g][1]oxa[4,6,8]triazacycloundecine], for which the half-maximal inhibitory concentration (IC50) stood at 20 nM on LRRK2 G2019S and 44 nM on LRRK2 WT.
Consider `Cc1c2c(nn1[C@@H]1CCOC[C@@H]1C)OCCCn1nc(Cl)c3cnc(nc31)N2` (single isomer, unassigned) [Example 24, 8-Chloro-3-methyl-2-((3R,4S) or (3S,4R) or (3S,4S) or (3R,4R)-3-methyltetrahydro-2H-pyran-4-yl)-2,4,12,13-tetrahydro-11H-5,7-(azenometheno)dipyrazolo[3,4-b:5′,1′-g][1]oxa[4,6,8]triazacycloundecine], for which the figures for the concentration for half-maximal inhibition (IC50) on LRRK2 G2019S and on LRRK2 WT were 4.7 nM and 14 nM, respectively.
For the compound `Cc1c2c(nn1[C@H]1CCCCOC1)OCCCn1nc(Cl)c3cnc(nc31)N2` (single isomer, unassigned) [Example 28, (+)-(R) or (S)-8-Chloro-3-methyl-2-(oxepan-3-yl)-2,4,12,13-tetrahydro-11H-5,7-(azenometheno)dipyrazolo[3,4-b:5′,1′-g][1]oxa[4,6,8]triazacycloundecine], the half-inhibitory concentration (IC50) was 5.3 nM at LRRK2 G2019S and 19 nM at LRRK2 WT.
For `Cc1c2c(nn1[C@@H]1CC1(F)F)OCCCn1nc(Cl)c3cnc(nc31)N2` (single isomer, unassigned) [Example 39, (−)-(R) or (S)-8-Chloro-2-(2,2-difluorocyclopropyl)-3-methyl-2,4,12,13-tetrahydro-11H-5,7-(azenometheno)dipyrazolo[3,4-b:5′,1′-g][1]oxa[4,6,8]triazacycloundecine], in that order: 7.8 nM and 19 nM.
For `Cc1c2c(nn1[C@H]1CCOC(C)(C)C1)OCCCn1nc(Cl)c3cnc(nc31)N2` (single isomer, unassigned) [Example 43, (−)-(R) or (S)-8-Chloro-2-(2,2-dimethyltetrahydro-2H-pyran-4-yl)-3-methyl-2,4,12,13-tetrahydro-11H-5,7-(azenometheno)dipyrazolo[3,4-b:5′,1′-g][1]oxa[4,6,8]triazacycloundecine], in that order: 5.3 nM and 17 nM.
For `Cc1c2c(nn1[C@H]1CCOC[C@]1(C)F)OCCCn1nc(Cl)c3cnc(nc31)N2` (single isomer, unassigned) [Example 48, (−)-8-Chloro-2-((3R,4S) or (3S,4R)-3-Fluoro-3-methyltetrahydro-2H-pyran-4-yl)-3-methyl-2,4,12,13-tetrahydro-11H-5,7-(azenometheno)dipyrazolo[3,4-b:5′,1′-g][1]oxa[4,6,8]triazacycloundecine], in that order: 18 nM and 90 nM.
